For this series the following is noted: for aqueous solubility: pH 6.8.

We go through 47 molecules from the Biogen ADME set (Fang et al. 2023).

Values after ≈ are worked out from the molar mass of the structure shown.

Turning to `CC(=O)N1CCN(C(=O)[C@H]2CCCCN2C(=O)OC(C)(C)C)CC1`, the MDR1-MDCK efflux ratio is 9.44; the intrinsic clearance, human liver microsomes is at most 4.74 mL/min/kg; the intrinsic clearance, rat liver microsomes was at most 10.7 mL/min/kg; the aqueous solubility is 113 µg/mL (≈ 333 µM).

Regarding `Cc1ccc2cc(C(=O)N(C)CCC#N)[nH]c2c1`, the intrinsic clearance, human liver microsomes came out at 61.8 mL/min/kg; the intrinsic clearance, rat liver microsomes is 122 mL/min/kg; the aqueous solubility is 4 µg/mL (≈ 16.6 µM).

With `CC(=O)Nc1ncc(CN2CCCC[C@@H]2C)s1`, the MDR1-MDCK efflux ratio was found to be 1.31; the fraction unbound, human plasma turned out to be 1; the fraction unbound, rat plasma came to 0.838; the intrinsic clearance, human liver microsomes was at most 4.74 mL/min/kg. This molecule also registered an intrinsic clearance, rat liver microsomes of 14.1 mL/min/kg.

With `COc1ccc(S(=O)(=O)N2CCC[C@H](C(=O)Nc3cccc4ncccc34)C2)cc1`, the intrinsic clearance, human liver microsomes stood at 22.6 mL/min/kg and the intrinsic clearance, rat liver microsomes is 611 mL/min/kg.

For `Cc1ccccc1CS(=O)(=O)c1ncc(Cl)c(C(=O)Nc2sc3c(c2C#N)CCCC3)n1`, the intrinsic clearance, human liver microsomes stood at 568 mL/min/kg and the intrinsic clearance, rat liver microsomes is 2120 mL/min/kg.

`CSc1ncccc1C(=O)Nc1ccc(N2CCCCC2=O)cc1`: the MDR1-MDCK efflux ratio was determined as 8.14; the intrinsic clearance, human liver microsomes was at most 4.74 mL/min/kg; the intrinsic clearance, rat liver microsomes turned out to be 17.8 mL/min/kg; the aqueous solubility worked out at 8.97 µg/mL (≈ 26.3 µM).

On to `N#CC1(C(=O)N2CCN(Cc3ccccn3)CC2)CCCCC1`, for which the MDR1-MDCK efflux ratio turned out to be 1.11; the intrinsic clearance, human liver microsomes is 10.7 mL/min/kg; the intrinsic clearance, rat liver microsomes was determined as 805 mL/min/kg; the aqueous solubility was 52.1 µg/mL (≈ 167 µM).

Turning to `CCOCC(=O)Nc1cccc(CN2CCCC2)c1`, the MDR1-MDCK efflux ratio amounted to 2.31; the intrinsic clearance, human liver microsomes stood at 15 mL/min/kg; the intrinsic clearance, rat liver microsomes amounted to 501 mL/min/kg.

For `O=C(c1ccccn1)N1CCCC(c2cccc(-c3cccc(Cl)c3)n2)C1` (stereo unspecified), the MDR1-MDCK efflux ratio was determined as 0.791; the intrinsic clearance, human liver microsomes is 164 mL/min/kg; the intrinsic clearance, rat liver microsomes stood at 1300 mL/min/kg; the aqueous solubility stood at 29.9 µg/mL (≈ 79.3 µM).

`N#Cc1ccc(CN2CC(n3cccn3)C2)cc1`: the MDR1-MDCK efflux ratio turned out to be 0.596; the intrinsic clearance, human liver microsomes is at most 4.74 mL/min/kg; the intrinsic clearance, rat liver microsomes worked out at 20.7 mL/min/kg; the aqueous solubility was found to be 36.5 µg/mL (≈ 153 µM).

Consider `CNC(=O)c1ccc2c(c1)CCO[C@H]2CCN1CCN(c2ccc(C(N)=O)cc2)CC1`, for which the MDR1-MDCK efflux ratio turned out to be 21.5; the intrinsic clearance, human liver microsomes is at most 4.74 mL/min/kg; the intrinsic clearance, rat liver microsomes was at most 10.7 mL/min/kg; the aqueous solubility was found to be 90 µg/mL (≈ 213 µM).

On to `O=C(O)c1ccccc1COc1cccc2cccnc12`, for which the MDR1-MDCK efflux ratio amounted to 1.76; the intrinsic clearance, human liver microsomes is at most 4.74 mL/min/kg; the intrinsic clearance, rat liver microsomes turned out to be 12.4 mL/min/kg.

As for `Cc1nn(C)c2ncnc(N(C)Cc3cccc(Cl)c3)c12`, the MDR1-MDCK efflux ratio turned out to be 0.569; the intrinsic clearance, human liver microsomes turned out to be 28.3 mL/min/kg; the intrinsic clearance, rat liver microsomes amounted to 652 mL/min/kg; the aqueous solubility came out at 22.5 µg/mL (≈ 74.5 µM).

For `CCc1cnc(C)nc1-c1ccc(-c2ccn[nH]2)cc1`, the MDR1-MDCK efflux ratio stood at 0.85; the intrinsic clearance, human liver microsomes was at most 4.74 mL/min/kg; the intrinsic clearance, rat liver microsomes amounted to 75 mL/min/kg; the aqueous solubility amounted to 20.7 µg/mL (≈ 78.5 µM).

`NC(=O)c1sc2cc(F)ccc2c1Cl` yielded an aqueous solubility of 0.5 µg/mL (≈ 2.18 µM).

On to `Cc1nnc(-c2ccccc2NCc2ccsc2)o1`, for which the MDR1-MDCK efflux ratio amounted to 0.204 and the aqueous solubility was found to be 0.93 µg/mL (≈ 3.43 µM).

Turning to `CC(C)NC(=O)COc1cccc(-c2nc(Nc3ccc4[nH]ncc4c3)c3ccccc3n2)c1`, the MDR1-MDCK efflux ratio was found to be 20; the fraction unbound, human plasma was found to be 0.00041; the fraction unbound, rat plasma was found to be 0.00313; the intrinsic clearance, human liver microsomes amounted to 42.7 mL/min/kg. Besides, the intrinsic clearance, rat liver microsomes was 1560 mL/min/kg.

As to `Cc1cccc(-c2nc(CN(Cc3cnn(C)c3)C(C)C)c(C)o2)c1`, the MDR1-MDCK efflux ratio turned out to be 1.24; the intrinsic clearance, human liver microsomes turned out to be 62.6 mL/min/kg; the intrinsic clearance, rat liver microsomes came to 4560 mL/min/kg; the aqueous solubility is 21.4 µg/mL (≈ 63.4 µM).

`CN(c1ccccc1N)S(C)(=O)=O` registered an intrinsic clearance, human liver microsomes of 10.2 mL/min/kg and an intrinsic clearance, rat liver microsomes of 24.1 mL/min/kg.

In the case of `CC(=O)c1c(C)c2cnc(Nc3ccc(N4CCNCC4)cn3)nc2n(C2CCCC2)c1=O`, the MDR1-MDCK efflux ratio came to 63.1; the intrinsic clearance, human liver microsomes stood at 12.8 mL/min/kg; the intrinsic clearance, rat liver microsomes stood at 34.7 mL/min/kg; the aqueous solubility came out at 46.2 µg/mL (≈ 103 µM).

On to `Cn1cc(-c2cn3nccc3c(-c3cnn([C@]4(CC#N)C[C@@H](C#N)C4)c3)n2)cn1`, for which the MDR1-MDCK efflux ratio amounted to 53.3; the fraction unbound, human plasma is 0.363; the fraction unbound, rat plasma was found to be 0.231; the intrinsic clearance, human liver microsomes was at most 4.74 mL/min/kg. The intrinsic clearance, rat liver microsomes is at most 10.7 mL/min/kg and the aqueous solubility was 2.2 µg/mL (≈ 5.74 µM).

On to `CC(C)N(C)S(=O)(=O)N1CCC(CNC(=O)CCCn2cccn2)CC1`, for which the MDR1-MDCK efflux ratio turned out to be 57.9; the intrinsic clearance, human liver microsomes was 16.3 mL/min/kg; the intrinsic clearance, rat liver microsomes worked out at 285 mL/min/kg.

Regarding `COc1cccc(-c2cccc(N)n2)c1F`, the MDR1-MDCK efflux ratio came out at 0.764; the intrinsic clearance, human liver microsomes was determined as 84.1 mL/min/kg; the intrinsic clearance, rat liver microsomes is 258 mL/min/kg; the aqueous solubility amounted to 18.2 µg/mL (≈ 83.4 µM).

The molecule `COc1ccc(S(=O)(=O)N2CCC(N3CCC(C)CC3)CC2)cc1` yielded an aqueous solubility of 56.4 µg/mL (≈ 160 µM).

For `C[C@]1(O)CN(C(=O)Cn2cnc3ccccc3c2=O)CC[C@@H]1Oc1ccccc1`, the MDR1-MDCK efflux ratio was 11.7; the intrinsic clearance, human liver microsomes was 7.14 mL/min/kg; the intrinsic clearance, rat liver microsomes turned out to be 44.7 mL/min/kg.

In the case of `CN(C)C(=O)CCNc1ccnc2ccc(Cl)cc12`, the intrinsic clearance, human liver microsomes came out at 6.56 mL/min/kg and the intrinsic clearance, rat liver microsomes turned out to be 73.1 mL/min/kg.

Consider `CC(=O)c1ccc2c(c1)CCN(CC1CCC3(CC1)OCCO3)CC2`, for which the MDR1-MDCK efflux ratio worked out at 0.556; the intrinsic clearance, human liver microsomes was at most 4.74 mL/min/kg; the intrinsic clearance, rat liver microsomes turned out to be 229 mL/min/kg.

On to `COc1ccccc1N1CCN(c2nc(-c3ccc(C)cc3)cc(=O)[nH]2)CC1`, for which the MDR1-MDCK efflux ratio was 1.75 and the aqueous solubility is 0.2 µg/mL (≈ 0.531 µM).

`Cc1ccccc1CC(=O)N1CCN(C(=O)c2ccccc2)CC1`: the MDR1-MDCK efflux ratio stood at 2.06; the intrinsic clearance, human liver microsomes was 6.12 mL/min/kg; the intrinsic clearance, rat liver microsomes is 211 mL/min/kg; the aqueous solubility is 44.3 µg/mL (≈ 137 µM).

As for `O[C@@H]1C[C@@H](c2nc(-c3cccnc3)no2)N(CCCc2ccccc2)C1`, the MDR1-MDCK efflux ratio worked out at 1.19; the intrinsic clearance, human liver microsomes is 108 mL/min/kg; the intrinsic clearance, rat liver microsomes came out at 1900 mL/min/kg; the aqueous solubility came to 45.6 µg/mL (≈ 130 µM).

`CCC(=O)NCc1ccnc(N(C)C)c1`: the MDR1-MDCK efflux ratio came to 0.879; the intrinsic clearance, human liver microsomes is at most 4.74 mL/min/kg; the intrinsic clearance, rat liver microsomes was at most 10.7 mL/min/kg; the aqueous solubility was found to be 30.6 µg/mL (≈ 147 µM).

Turning to `CCOc1ccc(C(=O)Nc2cnn(C3CCOCC3)c2)cn1`, the MDR1-MDCK efflux ratio worked out at 1.41; the intrinsic clearance, human liver microsomes is at most 4.74 mL/min/kg; the intrinsic clearance, rat liver microsomes is 106 mL/min/kg; the aqueous solubility turned out to be 39.9 µg/mL (≈ 126 µM).

In the case of `N#Cc1ccc2nc(NCCn3ccnc3)ccc2c1`, the MDR1-MDCK efflux ratio was 4.78; the intrinsic clearance, human liver microsomes is 6.36 mL/min/kg; the intrinsic clearance, rat liver microsomes is 54.5 mL/min/kg.

For the molecule `CS(=O)(=O)N1CCC(Nc2ccc3ccc(F)cc3n2)CC1`, the intrinsic clearance, human liver microsomes amounted to 5.9 mL/min/kg; the intrinsic clearance, rat liver microsomes is 98 mL/min/kg; the aqueous solubility came out at 52.8 µg/mL (≈ 163 µM).

For the molecule `c1ccc(Nc2nc(N3CCOCC3)nc(N3CCOCC3)n2)cc1`, the MDR1-MDCK efflux ratio worked out at 0.502; the intrinsic clearance, human liver microsomes is 22.8 mL/min/kg; the intrinsic clearance, rat liver microsomes is 48.3 mL/min/kg.

`CNc1nc(N2CCCCC2)nc(N2CCCCC2)n1` showed an intrinsic clearance, human liver microsomes of 54.7 mL/min/kg; an intrinsic clearance, rat liver microsomes of 801 mL/min/kg; an aqueous solubility of 27 µg/mL (≈ 97.5 µM).

Consider `CCc1nnc2c3ccccc3nc(Nc3ccc(OC)cc3)n12`, for which the MDR1-MDCK efflux ratio was 0.092 and the aqueous solubility amounted to 0.14 µg/mL (≈ 0.438 µM).

Consider `O=C1CN(C(=O)c2ccc(Cl)cn2)CCN1CCc1ccccc1`, for which the MDR1-MDCK efflux ratio amounted to 1.1; the intrinsic clearance, human liver microsomes is 7.25 mL/min/kg; the intrinsic clearance, rat liver microsomes was found to be 499 mL/min/kg.

As to `CC1(C)[C@@H]2C[C@H]1[C@@]1(O)[C@@H](C2)Oc2c(ccc(O)c2C(=O)NCCNc2ccccn2)[C@@H]1O`, the MDR1-MDCK efflux ratio is 24.5; the intrinsic clearance, human liver microsomes came to 322 mL/min/kg; the intrinsic clearance, rat liver microsomes stood at 2010 mL/min/kg.

On to `O=C(Nc1cnn(-c2ncccn2)c1)C1CCCCC1`, for which the intrinsic clearance, human liver microsomes was at most 4.74 mL/min/kg and the intrinsic clearance, rat liver microsomes was 73.1 mL/min/kg.

In the case of `Cc1ncc2c(n1)CN(CCCc1nc3ccccc3o1)CC2`, the MDR1-MDCK efflux ratio was found to be 0.774; the intrinsic clearance, human liver microsomes is 84.5 mL/min/kg; the intrinsic clearance, rat liver microsomes worked out at 309 mL/min/kg; the aqueous solubility came out at 46.6 µg/mL (≈ 151 µM).

Turning to `O=C(NCC1CC1)c1ccc(-n2ccnc2)nc1`, the MDR1-MDCK efflux ratio turned out to be 1.08; the intrinsic clearance, human liver microsomes was at most 4.74 mL/min/kg; the intrinsic clearance, rat liver microsomes was determined as 23.2 mL/min/kg; the aqueous solubility came out at 45.2 µg/mL (≈ 186 µM).

Regarding `CO[C@H]1COCCN(C(=O)c2cccnc2)C1`, the MDR1-MDCK efflux ratio came to 1.2; the intrinsic clearance, human liver microsomes was at most 4.74 mL/min/kg; the intrinsic clearance, rat liver microsomes was at most 10.7 mL/min/kg; the aqueous solubility was determined as 34.8 µg/mL (≈ 147 µM).

For the molecule `O=C(Nc1ccc(F)cc1)[C@H](O)c1ccccc1`, the aqueous solubility was determined as 42.9 µg/mL (≈ 175 µM).

`C[C@@H](CN1CCC(n2c(=O)[nH]c3cc(Cl)ccc32)CC1)NC(=O)c1ccc2ccccc2c1` displayed an intrinsic clearance, human liver microsomes of 104 mL/min/kg; an intrinsic clearance, rat liver microsomes of 668 mL/min/kg; an aqueous solubility of 3.85 µg/mL (≈ 8.32 µM).

The molecule `COCc1ccc(-c2nc3c([nH]2)c(C)nn3C2CCCCC2)o1` gave an intrinsic clearance, human liver microsomes of 51.8 mL/min/kg; an intrinsic clearance, rat liver microsomes of 485 mL/min/kg; an aqueous solubility of 38 µg/mL (≈ 121 µM).

`Cc1nc2ccccc2c(C(=O)O)c1C` displayed an intrinsic clearance, human liver microsomes of at most 4.74 mL/min/kg and an intrinsic clearance, rat liver microsomes of at most 10.7 mL/min/kg.

In general, aqueous solubility refers to the dissolved amount per volume that the medium holds. Lower therefore signals little dissolved substance.
